Measured values: ChEMBL document CHEMBL6103581, “Identification of Thieno[3,2-d]pyrimidine derivatives as potent and selective Janus Kinase 1 inhibitors” (Eur J Med Chem, 2025)

Columns and labels:
Type in all cases: functional
[1] = Antiproliferative activity against mouse Ba/F3-TEL-JAK1 cells assessed as cell growth inhibition incubated for 72 hrs by Cell-TiterGlo assay
[2] = system: NCI-H1975; assay: Antiproliferative activity against human NCI-H1975 cells assessed as cell growth inhibition incubated for 72 hrs by Cell-TiterGlo assay
[3] = system: BaF3; assay: Antiproliferative activity against mouse parental BaF3 cells assessed as cell growth inhibition incubated for 72 hrs by Cell-TiterGlo assay
[4] = system: NCI-H2087; assay: Antiproliferative activity against human NCI-H2087 cells assessed as cell growth inhibition incubated for 72 hrs by Cell-TiterGlo assay

Row | Compound | GI50 [2] [µM] | GI50 [4] [µM] | GI50 [1] [µM] | GI50 [3] [µM]
1 | COc1nn(C)cc1Nc1ncc2scc(-c3cccc(NC(=O)[C@@H](C)N4CCN(C5CCOCC5)CC4)c3)c2n1 | 23.4 | 8.98 | 1.22 | 1.37
2 | COc1ncccc1Nc1ncc2scc(-c3cccc(NC(=O)[C@@H](C)N4CCN(C)CC4)c3)c2n1 | 10.5 | 3.27 | 1.77 | 2.59
3 | Cc1ccnc(C)c1Nc1ncc2scc(-c3cccc(NC(=O)[C@@H](C)N4CCN(C)CC4)c3)c2n1 | 28.9 | 7.82 | 16.2 | 17.3
4 | COc1nn(C)cc1Nc1ncc2scc(-c3cccc(NC(=O)[C@@H](C)N4CCN(C(C)=O)CC4)c3)c2n1 | 23.6 | 21.1 | 1.89 | 1.69
5 | COc1n[nH]cc1Nc1ncc2scc(-c3cccc(NC(=O)[C@@H](C)N4CCN(C)CC4)c3)c2n1 | 16.5 | 8.62 | 0.62 | 1.24
6 | COc1nn(C)cc1Nc1ncc2scc(-c3cccc(NC(=O)[C@@H](C)N4CCN(C5COC5)CC4)c3)c2n1 | > 50 | 16.4 | 6.78 | 6.07
7 | COc1nn(CCO)cc1Nc1ncc2scc(-c3cccc(NC(=O)[C@@H](C)N4CCN(C)CC4)c3)c2n1 | 10.4 | 5.57 | 0.809 | 1.04
8 | COc1nn(C)cc1Nc1ncc2scc(-c3cccc(NC(=O)[C@H]4CCCN4C4CCOCC4)c3)c2n1 | 21 | 9.31 | 2.79 | 6.37
9 | C[C@H](C(=O)Nc1cccc(-c2csc3cnc(Nc4nnn(C)n4)nc23)c1)N1CCN(C)CC1 | 27.9 | 6.47 | 7.17 | 6.09
10 | C=CC(=O)N1CCN([C@H](C)C(=O)Nc2cccc(-c3csc4cnc(Nc5cn(C)nc5OC)nc34)c2)CC1 | 13.5 | 10.5 | 1.7 | 1.62
11 | Cc1ccc(Nc2ncc3scc(-c4cccc(NC(=O)[C@@H](C)N5CCN(C)CC5)c4)c3n2)c(C)n1 | 27.2 | 6.49 | 5.45 | 7.83
12 | COc1nn(C)cc1Nc1ncc2scc(-c3cccc(NC(=O)[C@@H](C)N4CCN(C(C)C)CC4)c3)c2n1 | 15.4 | 3.61 | 0.519 | 1.05
13 | COc1nn(C)cc1Nc1ncc2scc(-c3cccc(NC(=O)[C@@H](C)N4CCN(C(=O)CC#N)CC4)c3)c2n1 | 40.3 | 23.3 | 2.44 | 3.98
14 | C[C@H](C(=O)Nc1cccc(-c2csc3cnc(Nc4cccnc4O)nc23)c1)N1CCN(C)CC1 | 18.5 | 13.5 | 7.31 | 6.16
15 | C=CC(=O)N1C[C@H](Nc2ncnc3[nH]ccc23)CC[C@@H]1C [RITLECITINIB] | > 50 | > 50 | > 50 | > 50
16 | C[C@@H]1CCN(C(=O)CC#N)C[C@@H]1N(C)c1ncnc2[nH]ccc12 [TOFACITINIB] | > 50 | > 50 | 0.495 | 1.81
17 | COc1nn(C)cc1Nc1ncc2scc(-c3cccc(NC(=O)[C@H]4CCCN4C4CCN(C)CC4)c3)c2n1 | 11 | 4.26 | 1.61 | 2.25
18 | C[C@H](C(=O)Nc1cccc(-c2csc3cnc(Nc4cccc(S(C)(=O)=O)c4F)nc23)c1)N1CCN(C)CC1 | 12.6 | 6.28 | 0.641 | 0.677
19 | COc1nn(C)cc1Nc1ncc2scc(-c3cccc(NC(=O)[C@@H](C)N4CCN(S(C)(=O)=O)CC4)c3)c2n1 | 20.2 | 22.2 | 2.45 | 3.77
20 | Cc1ncccc1Nc1ncc2scc(-c3cccc(NC(=O)[C@@H](C)N4CCN(C)CC4)c3)c2n1 | 23.1 | 6.42 | 1.97 | 2.74

Stronger by GI50 [2], values ahead:

Row | GI50 [2] [µM] | GI50 [4] [µM] | Compound | GI50 [1] [µM] | GI50 [3] [µM]
21 | 7.4 | 3.03 | C[C@H](C(=O)Nc1cccc(-c2csc3cnc(Nc4cn(C)nc4C(F)(F)F)nc23)c1)N1CCN(C)CC1 | 1.93 | 2.77
22 | 8.98 | 9.5 | COc1nn(C)cc1Nc1ncc2scc(-c3cccc(NC(=O)[C@H]4CCCN4S(C)(=O)=O)c3)c2n1 | 3.1 | 6.16
23 | 4.53 | 8.22 | COc1nn(C)cc1Nc1ncc2scc(-c3cccc(NS(C)(=O)=O)c3)c2n1 | 0.659 | 0.781
24 | 9.18 | 2.67 | Cc1ccc(Nc2ncc3scc(-c4cccc(NC(=O)[C@@H](C)N5CCN(C)CC5)c4)c3n2)cn1 | 0.994 | 2.52
25 | 8.86 | 3.74 | COc1nn(C)cc1Nc1ncc2scc(-c3cccc(NC(=O)[C@@H]4CCCN4)c3)c2n1 | 1.22 | 3.33
26 | 4.61 | 3.28 | COc1nn(C(C)=O)cc1Nc1ncc2scc(-c3cccc(NC(=O)[C@@H](C)N4CCN(C)CC4)c3)c2n1 | 2.42 | 2.27
27 | 4.26 | 1.66 | COc1nn(C)cc1Nc1ncc2scc(-c3cccc(NC(=O)[C@@H](C)N4CCNCC4)c3)c2n1 | 0.188 | 0.507
28 | 7.36 | 3.48 | COc1nn(C)cc1Nc1ncc2scc(-c3cccc(NC(=O)[C@@H](C)N4CCN(C(=O)C(F)(F)F)CC4)c3)c2n1 | 0.351 | 1.04
29 | 7.34 | 7.05 | Cc1cc(Nc2ncc3scc(-c4cccc(NC(=O)[C@@H](C)N5CCN(C)CC5)c4)c3n2)n(C)n1 | 1.6 | 4.26
